Assay results reported in US8722626B2, “Method for controlling fibrosis and other pathological deposits in tissues comprising administering a GHRP-6 composition” (Centro de Ingenieria Genetica y Biotecnologia, priority 2006, dated 2014).

Columns and labels:
[1] = test system: transgenic mice over-expressing one mutated form of the NOTCH 3 gene; assay: Dementia of vascular origin: transgenic mice over-expressing mutated NOTCH 3 gene (CADASIL model, Example 6); type: in vivo, mouse; parameters: SODt (oxidative stress marker) / Cabalase (oxidative stress marker) / HPT (oxidative stress marker) / MDA (oxidative stress marker): unit not given here; conditions: 100 μg/kg i.p. twice a week, 16 weeks
Procedure: This experiment was conducted to evaluate the efficacy of pharmaceutical compositions indistinctly containing one of the peptides GHRP-6, GHRP-2, hexarelin or ghrelin on the central neurofunctional involution process in transgenic mice over-expressing one mutated form of the NOTCH 3 gene in blood vessel smooth muscle cells. These animals develop in terms of months an arteriopathy similar to that of the CASADIL disease, referred to the descriptive memory, and is occurring as one of the main causes of vascular dementia. In these animals, vascular lesions also include retinal-cerebral, cerebral and cochlear vasculopathies. The beta-amiloid material present in the brain and blood vessels, the deposit of osmophilic granular material in brain and meningeal artery walls and their reduced lumen are histopathologically relevant. White-pale zones, microinfarction and hemorrhagic foci zones appear in the brain and its main nervous trunks.
Eighteen- to twenty-months-old male mice were employed when evidenced the symptoms of the disease. The animals were randomly assigned to the following experimental treatment groups: • A—Placebo group receiving the physiological saline solution. • B—Group receiving GHRP-6 at a 100 μg/kg dosage. • C—Group receiving GHRP-2 at a 100 μg/kg dosage. • D—Group receiving Ghrelin at a 100 μg/kg dosage. • E—Group receiving Hexarelin at a 100 μg/kg dosage.
Treatments were applied twice a week during 16 weeks by intraperitoneal route. When treatments concluded, autopsy studies were conducted irrespective of the clinical improvement evidenced in a great number of animals treated. Brain tissue samples including meningeal tissues were collected for biochemical and histopathological determinations. The animals received anesthesia overdosed and subjected to intra-cardiac perfusion with cold physiological saline solution to wash off the blood present in the encephala. The encephala were extracted and one encephalon was frozen in dry-ice and the other was fixed in 4% para-formaldehyde neutral. Samples were cryo-sliced at 10 μm and slices were stained with hematoxylin/eosin, Congo Red, or incubated with an antibody specific for the beta-amiloid protein. Morphometric procedures were carried out by microscopic imaging capture by a camera connected to the microscope, and the images were analyzed with the DIGIPAT software.
Number of fibrillar deposits of beta-amiloid in blood vessels.
Number of sub-cortical infarctions.
Number of sub-cortical hemorrhages.
Brain concentration of myo-inositol as indicator of aging and brain metabolism deterioration (μmol/g of tissue).
Brain oxidative stress markers.

[2] = test system: hepatic fibrosis in male Wistar rats (bile duct ligation); assay: Reverting hepatic fibrosis induced by ligation of the common bile duct in rats (Example 1); type: in vivo, rat; parameters: SODt (oxidative stress marker) / Catalase (oxidative stress marker) / HPT (oxidative stress marker) / MDA (oxidative stress marker): unit not given here; conditions: for Grade 0 (null) hepatic fibrosis, animals per group / Grade 1 (moderate) hepatic fibrosis, animals per group / Grade 2 (limited) hepatic fibrosis, animals per group / Grade 3 (severe) hepatic fibrosis, animals per group / Grade 4 (very severe) hepatic fibrosis, animals per group: three weeks; for GGT serum level / GOT serum level / GPT serum level / Content of OH—P (hydroxiproline) in liver: end of three weeks of treatment; for Catalase (oxidative stress marker) / HPT (oxidative stress marker) / MDA (oxidative stress marker) / SODt (oxidative stress marker): liver samples, end of third week of treatment
Procedure: The present experiment was conducted to evaluate the effect of the GHRP-6-based pharmaceutical composition on reverting the hepatic fibrosis in rats. Hepatic fibrosis was induced in male Wistar rats of 250 g of average body weight by ligating the external bile duct. For this purpose, rats were anesthetized with a ketamine/xylazine combination and subjected to laparotomy to expose the common bile duct. The duct was double-ligated with chromium catgut 4-0. After surgery, animals were randomly distributed into 3 experimental groups of 20 rats each: (1) Control placebo group, receiving physiological saline solution, (2) Group receiving the GHRP-6 at a 100 μg/kg dosage, and (3) Group receiving the GHRP-6 at a 400 μg/kg dosage. Treatments were daily administered during three weeks after inducing the fibrosis of the liver parenchyma. All the treatments were started three weeks after the appearance of fibrosis. The follow up of the hepatic damage was conducted by weekly ultrasound examinations of the projection area of this organ, the progress of serum levels of GOT and GPT transaminases, gamma glutamyl transferase (GGT) levels and the volume of ascitis. Treatments with GHRP-6 or placebo were applied by the intraperitoneal route once daily. When treatments concluded, animals were sacrificed and blood serum and the liver were collected. Liver fragments were fixed in formalin neutral and processed by hematoxylin/eosin staining, or by Masson's trichromic staining, to evaluate the general damage and the severity of fibrotic indurations. Other fragments of liver tissues were stored at −70° C. until processing to determine the content of hydroxiproline by acid hydrolysis in 1N HCl, and also the intrahepatic levels of redox metabolism markers. Biochemical determinations were carried out by calculating the total protein content by the Bradford's method.

[3] = Dosage I: 100 μg/kg i.p. once daily, N = 16
[4] = Dosage I: 100 μg/kg i.p. once daily
[5] = Dosage II: 400 μg/kg i.p. once daily, N = 20
[6] = Dosage II: 400 μg/kg i.p. once daily

**Q.** Which “Cabalase (oxidative stress marker)” value ([1]; brain) does the source give for GHRP-6 here?
**A.** Its value is 51.5 ± 16.01.

**Q.** And the “Cerebral Myo-inositol” value ([1]; brain)?
**A.** The value was 12.36 ± 5.64 μmol/g of tissue.

**Q.** And the “HPT (oxidative stress marker)” value ([1]; brain)?
**A.** Its value is 101.7 ± 22.09.

**Q.** And the “MDA (oxidative stress marker)” value ([1]; brain)?
**A.** The value was 0.23 ± 0.05.

**Q.** And the “SODt (oxidative stress marker)” value ([1]; brain)?
**A.** The value was 12327.31 ± 55.1.

**Q.** What about the “No. of blood vessels positive to Congo Red” value ([1]; cerebral tissues) of the same substance?
**A.** The value was 16.31 ± 5.33.

**Q.** And the “No. of blood vessels positive to Nissl” value ([1]; cerebral tissues)?
**A.** The value was 14.22 ± 8.15.

**Q.** What about the “No. of hemorrhagic foci.” value ([1]; cerebral tissues) of the same substance?
**A.** The value was 19.05 ± 5.14.

**Q.** And the “No. of subcortical infarctions.” value ([1]; cerebral tissues)?
**A.** The value was 26.79 ± 4.19.

**Q.** And the “Grade 0 (null) hepatic fibrosis, animals per group” value [2, 3]?
**A.** The value was 5.

**Q.** What about the “Grade 1 (moderate) hepatic fibrosis, animals per group” value [2, 3] of the same substance?
**A.** The value was 9.

**Q.** What about the “Grade 2 (limited) hepatic fibrosis, animals per group” value [2, 3] of the same substance?
**A.** The value was 2.

**Q.** What about the “Grade 3 (severe) hepatic fibrosis, animals per group” value [2, 3] of the same substance?
**A.** The value was 0.

**Q.** And the “Grade 4 (very severe) hepatic fibrosis, animals per group” value [2, 3]?
**A.** Its value is 0.

**Q.** What about the GGT serum level [2, 4] of the same substance?
**A.** Its GGT serum level is 71.53 ± 22.14 U/I.

**Q.** What about the GOT serum level [2, 4] of the same substance?
**A.** Its GOT serum level is 61.58 ± 16.10 IU/I.

**Q.** What about the GPT serum level [2, 4] of the same substance?
**A.** The GPT serum level was 81.71 ± 30.90 IU/I.

**Q.** And the “Content of OH—P (hydroxiproline) in liver” value [2, 3]?
**A.** The value was 56.71 ± 8.11 μg/g of total proteins.

**Q.** And the “Grade 0 (null) hepatic fibrosis, animals per group” value [2, 5]?
**A.** Its value is 8.

**Q.** And the “Grade 1 (moderate) hepatic fibrosis, animals per group” value [2, 5]?
**A.** Its value is 11.

**Q.** And the “Grade 2 (limited) hepatic fibrosis, animals per group” value [2, 5]?
**A.** Its value is 1.

**Q.** And the “Grade 3 (severe) hepatic fibrosis, animals per group” value [2, 5]?
**A.** The value was 0.

**Q.** What about the “Grade 4 (very severe) hepatic fibrosis, animals per group” value [2, 5] of the same substance?
**A.** Its value is 0.

**Q.** What about the GGT serum level [2, 6] of the same substance?
**A.** The GGT serum level was 25.56 ± 8.63 U/I.

**Q.** And the GOT serum level [2, 6]?
**A.** The GOT serum level was 30.41 ± 6.11 IU/I.

**Q.** And the GPT serum level [2, 6]?
**A.** Its GPT serum level is 60.64 ± 19.87 IU/I.

**Q.** What about the “Content of OH—P (hydroxiproline) in liver” value [2, 5] of the same substance?
**A.** The value was 16.15 ± 1.025 μg/g of total proteins.

**Q.** What about the “Deposit of collagenous and extracellular materials in liver parenchyma (overall result)” value ([2]; ligation of the common bile duct, morphological and biochemical data) of the same substance?
**A.** The value was “eradicate and control the deposit of collagenous and extracellular materials in liver parenchyma”.

**Q.** And the “Catalase (oxidative stress marker)” value ([2]; Dosage I: 100 μg/kg)?
**A.** Its value is 68.50 ± 12.73.

**Q.** And the “HPT (oxidative stress marker)” value ([2]; Dosage I: 100 μg/kg)?
**A.** The value was 43.06 ± 1.83.

**Q.** What about the “MDA (oxidative stress marker)” value ([2]; Dosage I: 100 μg/kg) of the same substance?
**A.** The value was 0.14 ± 0.02.

**Q.** And the “SODt (oxidative stress marker)” value ([2]; Dosage I: 100 μg/kg)?
**A.** The value was 11058.07 ± 744.61.

**Q.** What about the “Catalase (oxidative stress marker)” value ([2]; Dosage II: 400 μg/kg) of the same substance?
**A.** The value was 31.50 ± 4.3.

**Q.** What about the “HPT (oxidative stress marker)” value ([2]; Dosage II: 400 μg/kg) of the same substance?
**A.** Its value is 21.16 ± 1.71.

**Q.** And the “MDA (oxidative stress marker)” value ([2]; Dosage II: 400 μg/kg)?
**A.** Its value is 0.08 ± 0.01.

**Q.** What about the “SODt (oxidative stress marker)” value ([2]; Dosage II: 400 μg/kg) of the same substance?
**A.** The value was 21029.87 ± 498.28.
